Laboratory results: patent US6881741B2 (ViroChem Pharma Inc., priority 2001, dated 2005)
Where a name gives a salt, the structure may show the parent alone.

What follows are molecules tested against recombinant HCV NS5B (HCV RNA-dependent RNA polymerase) (Hepatitis C virus genotype 1b, UniProt P26663) (assay: biochemical). Conditions: related polymerase activity (Example 27 list); read-out: IC50.
Sequence of recombinant HCV NS5B (HCV RNA-dependent RNA polymerase) (P26663 2420-3010 limits assumed): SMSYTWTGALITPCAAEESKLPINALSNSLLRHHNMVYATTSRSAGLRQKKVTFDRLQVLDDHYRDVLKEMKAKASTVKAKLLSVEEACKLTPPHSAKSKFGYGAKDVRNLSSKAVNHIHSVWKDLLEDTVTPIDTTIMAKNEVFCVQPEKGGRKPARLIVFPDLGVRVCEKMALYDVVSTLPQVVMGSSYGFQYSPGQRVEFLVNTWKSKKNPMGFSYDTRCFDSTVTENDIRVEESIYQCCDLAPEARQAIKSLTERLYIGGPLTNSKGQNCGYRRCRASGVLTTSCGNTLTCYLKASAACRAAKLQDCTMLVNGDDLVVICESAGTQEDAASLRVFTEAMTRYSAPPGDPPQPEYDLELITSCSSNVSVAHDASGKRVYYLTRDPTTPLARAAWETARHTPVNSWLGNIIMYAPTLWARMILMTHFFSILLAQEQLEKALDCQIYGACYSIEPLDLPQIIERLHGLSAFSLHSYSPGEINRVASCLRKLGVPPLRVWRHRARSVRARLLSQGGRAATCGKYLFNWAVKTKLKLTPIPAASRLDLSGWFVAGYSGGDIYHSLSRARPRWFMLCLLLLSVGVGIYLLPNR

`O=C(O)c1sc(-c2ccccc2)cc1NS(=O)(=O)c1ccc([N+](=O)[O-])cc1` [Compound 148, 3-(4-NITRO-BENZENESULFONYLAMINO)-5-PHENYL-THIOPHENE-2-CARBOXYLIC ACID] and `Cc1ccc(S(=O)(=O)Nc2cc(-c3ccccc3)sc2C(=O)O)c([N+](=O)[O-])c1` [Compound 177, 3-(4-METHYL-2-NITRO-BENZENESULFONYLAMINO)-5-PHENYL-THIOPHENE-2-CARBOXYLIC ACID] fall in the same range of IC50: 5 to 20 µM for the first, 5 to 20 µM for the second.

First: CC(C)N(C(=O)c1ccc(Cl)cc1Cl)c1cc(-c2ccccc2)sc1C(=O)O [Compound 149, 3-[(2,4-DICHLORO-BENZOYL)-ISOPROPYL-AMINO]-5-PHENYL-THIOPHENE-2-CARBOXYLIC ACID]
Second: CN(C(=O)c1sccc1Cl)c1cc(-c2ccccc2)sc1C(=O)O [Compound 186, 3-[(3-CHLORO-THIOPHENE-2-CARBONYL)-METHYL-AMINO]-5-PHENYL-THIOPHENE-2-CARBOXYLIC ACID]
The IC50 of the first is lower: less than 5 µM for the first, 5 to 20 µM for the second.

First: Cc1ccccc1S(=O)(=O)Nc1cc(Cc2cccc(C#N)c2)sc1C(=O)O [Compound 150, 5-(3-CYANO-BENZYL)-3-(TOLUENE-2-SULFONYLAMINO)-THIOPHENE-2-CARBOXYLIC ACID]
Second: Cc1ccccc1S(=O)(=O)Nc1cc(-c2cccc(N)c2)sc1C(=O)O [Compound 164, 5-(3-AMINO-PHENYL)-3-(TOLUENE-2-SULFONYLAMINO)-THIOPHENE-2-CARBOXYLIC ACID]
The IC50 of the first is higher: greater than 20 µM for the first, 5 to 20 µM for the second. The second is the more potent here.

First: O=C(O)c1sc(-c2ccccc2)cc1NS(=O)(=O)c1c(F)cc(F)cc1F [Compound 151, 5-PHENYL-3-(2,4,6-TRIFLUORO-BENZENESULFONYLAMINO)-THIOPHENE-2-CARBOXYLIC ACID]
Second: O=C(O)c1sc(-c2ccccc2)cc1NS(=O)(=O)c1cc(Cl)c(O)c(Cl)c1 [Compound 169, 3-(3,5-DICHLORO-4-HYDROXY-BENZENESULFONYLAMINO)-5-PHENYL-THIOPHENE-2-CARBOXYLIC ACID]
The IC50 of the first is lower: less than 5 µM for the first, 5 to 20 µM for the second. The first is the more potent here.

Compared with `COc1ccc(S(=O)(=O)Nc2cc(-c3ccccc3)sc2C(=O)O)c([N+](=O)[O-])c1` [Compound 152, 3-(4-METHOXY-2-NITRO-BENZENESULFONYLAMINO)-5-PHENYL-THIOPHENE-2-CARBOXYLIC ACID], `Cc1ccccc1S(=O)(=O)Nc1cc(-c2cccc(O)c2)sc1C(=O)O` [Compound 171, 5-(3-HYDROXY-PHENYL)-3-(TOLUENE-2-SULFONYLAMINO)-THIOPHENE-2-CARBOXYLIC ACID] is lower in IC50: 5 to 20 µM for the first, less than 5 µM for the second. The second is the more potent here.

First: O=C(O)c1sc(-c2ccccc2)cc1NS(=O)(=O)c1ccc(Cl)c(Cl)c1Cl [Compound 153, 5-PHENYL-3-(2,3,4-TRICHLORO-BENZENESULFONYLAMINO)-THIOPHENE-2-CARBOXYLIC ACID]
Second: Cc1ccccc1S(=O)(=O)Nc1cc(-c2ccc(N)cc2)sc1C(=O)O [Compound 165, 5-(4-AMINO-PHENYL)-3-(TOLUENE-2-SULFONYLAMINO)-THIOPHENE-2-CARBOXYLIC ACID]
The IC50 of the first is lower: less than 5 µM for the first, 5 to 20 µM for the second. The first is the more potent here.

First: COC(=O)c1cc(S(=O)(=O)Nc2cc(-c3ccccc3)sc2C(=O)O)oc1C [Compound 154, 5-(2-CARBOXY-5-PHENYL-THIOPHEN-3-YLSULFAMOYL)-2-METHYL-FURAN-3-CARBOXYLIC ACID METHYL ESTER]
Second: CCOC(=O)c1c(C)[nH]c(C)c1S(=O)(=O)Nc1cc(-c2ccccc2)sc1C(=O)O [Compound 167, 4-(2-CARBOXY-5-PHENYL-THIOPHEN-3-YLSULFAMOYL)-2,5-DIMETHYL-1H-PYRROLE-3-CARBOXYLIC ACID ETHYL ESTER]
The IC50 of the first is lower: less than 5 µM for the first, 5 to 20 µM for the second. The first is the more potent here.

First: CCOC(=O)c1c(S(=O)(=O)Nc2cc(-c3ccccc3)sc2C(=O)O)c(-c2ccccc2)n(-c2ccccc2)c1C [Compound 155, 4-(2-CARBOXY-5-PHENYL-THIOPHEN-3-YLSULFAMOYL)-2-METHYL-1,5-DIPHENYL-1H-PYRROLE-3-CARBOXYLIC ACID ETHYL ESTER]
Second: CCOC(=O)c1c(C)c(S(=O)(=O)Nc2cc(-c3ccccc3)sc2C(=O)O)c(-c2ccc(Cl)cc2)n1-c1ccccc1 [Compound 168, 4-(2-CARBOXY-5-PHENYL-THIOPHEN-3-YLSULFAMOYL)-5-(4-CHLORO-PHENYL)-3-METHYL-1-PHENYL-1H-PYRROLE-2-CARBOXYLIC ACID ETHYL ESTER]
The IC50 of the first is lower: less than 5 µM for the first, 5 to 20 µM for the second. The first is the more potent here.

`O=C(O)c1sc(-c2ccccc2)cc1NC(=O)N1CCN(c2cccc(C(F)(F)F)c2)CC1` [Compound 156, 5-PHENYL-3-{[4-(3-TRIFLUOROMETHYL-PHENYL)-PIPERAZINE-1-CARBONYL]-AMIN}-THIOPHENE-2-CARBOXYLIC ACID] and `O=C(O)c1sc(-c2ccccc2)cc1NC(=O)N1CCN(c2cccc(Cl)c2)CC1` [Compound 160, 3-{[4-(3-CHLORO-PHENYL)-PIPERAZINE-1-CARBONYL]-AMINO}-5-PHENYL-THIOPHENE-2-CARBOXYLIC ACID] fall in the same range of IC50: 5 to 20 µM for the first, 5 to 20 µM for the second.

First: O=C(O)c1sc(-c2ccccc2)cc1NC(=O)N1CCN(c2ccc(F)cc2)CC1 [Compound 157, 3-{[4-(4-FLUORO-PHENYL)-PIPERAZINE-1-CARBONYL]-AMINO}-5-PHENYL-THIOPHENE-2-CARBOXYLIC ACID]
Second: COc1ccc(N2CCN(C(=O)Nc3cc(-c4ccccc4)sc3C(=O)O)CC2)cc1 [Compound 181, 3-{[4-(4-METHOXY-PHENYL)-PIPERAZINE-1-CARBONYL]-AMINO}-5-PHENYL-THIOPHENE-2-CARBOXYLIC ACID]
The IC50 of the first is higher: greater than 20 µM for the first, 5 to 20 µM for the second. The second is the more potent here.

Compared with `Cc1cccc(C)c1N1CCN(C(=O)Nc2cc(-c3ccccc3)sc2C(=O)O)CC1` [Compound 158, 3-{[4-(2,6-DIMETHYL-PHENYL)-PIPERAZINE-1-CARBONYL]-AMINO}-5-PHENYL-THIOPHENE-2-CARBOXYLIC ACID], `Cc1cccc(N2CCN(C(=O)Nc3cc(-c4ccccc4)sc3C(=O)O)CC2)n1` [Compound 182, 3-{[4-(6-METHYL-PYRIDIN-2-YL)-PIPERAZINE-1-CARBONYL]-AMINO}-5-PHENYL-THIOPHENE-2-CARBOXYLIC ACID HYDROCHLORIDE] is lower in IC50: greater than 20 µM for the first, 5 to 20 µM for the second.

`O=C(O)c1sc(-c2ccccc2)cc1NC(=O)N1CCN(c2ccccc2Cl)CC1` [Compound 159, 3-{[4-(2-CHLORO-PHENYL)-PIPERAZINE-1-CARBONYL]-AMINO}-5-PHENYL-THIOPHENE-2-CARBOXYLIC ACID] and `O=C(O)c1sc(-c2ccccc2)cc1NC(=O)N1CCN(Cc2ccc(Cl)cc2)CC1` [Compound 183, 3-{[4-(4-CHLORO-BENZYL)-PIPERAZINE-1-CARBONYL]-AMINO}-5-PHENYL-THIOPHENE-2-CARBOXYLIC ACID HYDROCHLORIDE] fall in the same range of IC50: 5 to 20 µM for the first, 5 to 20 µM for the second.

`Cc1ccccc1S(=O)(=O)Nc1cc(-c2cc(NS(=O)(=O)c3ccccc3C)c(C(=O)O)s2)sc1C(=O)O` [Compound 161, 4,4′-BIS-(TOLUENE-2-SULFONYLAMINO)-[2,2′]BITHIOPHENYL-5,5′-DICARBOXYLIC ACID] and `CC(=O)c1ccc(-c2cc(NS(=O)(=O)c3ccccc3C)c(C(=O)O)s2)cc1` [Compound 166, 5-(4-ACETYL-PHENYL)-3-(TOLUENE-2-SULFONYLAMINO)-THIOPHENE-2-CARBOXYLIC ACID] cannot be ordered by IC50: less than 5 µM for the first, less than 5 µM for the second.

`C=CCN(C(=O)c1ccc(C)cc1)c1cc(-c2ccccc2)sc1C(=O)O` [Compound 162, 3-[ALLYL-(4-METHYL-BENZOYL)-AMINO]-5-PHENYL-THIOPHENE-2-CARBOXYLIC ACID] and `CCN(C(=O)c1ccc(C)cc1)c1cc(-c2ccccc2)sc1C(=O)O` [Compound 185, 3-[ETHYL-(4-METHYL-BENZOYL)-AMINO]-5-PHENYL-THIOPHENE-2-CARBOXYLIC ACID] cannot be ordered by IC50: less than 5 µM for the first, less than 5 µM for the second.

First: Cc1ccccc1S(=O)(=O)Nc1cc(-c2cnn(S(=O)(=O)N(C)C)c2)sc1C(=O)O [Compound 163, 5-(1-DIMETHYLSULFAMOYL-1H-PYRAZOL-4-YL)-3-(TOLUENE-2-SULFONYLAMINO)-THIOPHENE-2-CARBOXYLIC ACID]
Second: Cc1ccccc1S(=O)(=O)Nc1cc(-c2cn[nH]c2)sc1C(=O)O [Compound 170, 5-(1H-PYRAZOL-4-YL)-3-(TOLUENE-2-SULFONYLAMINO)-THIOPHENE-2-CARBOXYLIC ACID]
The IC50 of the first is higher: 5 to 20 µM for the first, less than 5 µM for the second.

`CC(C)CC(=O)N(C)c1cc(-c2ccccc2)sc1C(=O)O` [Compound 172, 3-[METHYL-(3-METHYL-BUTYRYL)-AMINO]-5-PHENYL-THIOPHENE-2-CARBOXYLIC ACID] and `CN(C(=O)Cc1ccccc1)c1cc(-c2ccccc2)sc1C(=O)O` [Compound 175, 3-(METHYL-PHENYLACETYL-AMINO)-5-PHENYL-THIOPHENE-2-CARBOXYLIC ACID] cannot be ordered by IC50: less than 5 µM for the first, less than 5 µM for the second.

First: CN(C(=O)Cc1ccc(F)cc1)c1cc(-c2ccccc2)sc1C(=O)O [Compound 173, 3-{[2-(4-FLUORO-PHENYL)-ACETYL]-METHYL-AMINO}-5-PHENYL-THIOPHENE-2-CARBOXYLIC ACID]
Second: CN(C(=O)c1ccccc1Br)c1cc(-c2ccccc2)sc1C(=O)O [Compound 187, 3-[(2-BROMO-BENZOYL)-METHYL-AMINO]-5-PHENYL-THIOPHENE-2-CARBOXYLIC ACID]
The IC50 of the first is lower: less than 5 µM for the first, 5 to 20 µM for the second. The first is the more potent here.

`CCCCCc1ccc(S(=O)(=O)Nc2cc(-c3ccccc3)sc2C(=O)O)cc1` [Compound 174, 3-(4-PENTYL-BENZENESULFONYLAMINO)-5-PHENYL-THIOPHENE-2-CARBOXYLIC ACID] and `O=C(NCCCc1ccccc1)Nc1cc(-c2ccccc2)sc1C(=O)O` [Compound 179, 5-PHENYL-3-[3-(3-PHENYL-PROPYL)-UREIDO]-THIOPHENE-2-CARBOXYLIC ACID] fall in the same range of IC50: 5 to 20 µM for the first, 5 to 20 µM for the second.

First: O=C(O)c1sc(-c2ccccc2)cc1NS(=O)(=O)c1cc(OCC(F)(F)F)ccc1OCC(F)(F)F [Compound 176, 3-[2,5-BIS-(2,2,2-TRIFLUORO-ETHOXY)-BENZENESULFONYLAMINO]-5-PHENYL-THIOPHENE-2-CARBOXYLIC ACID]
Second: Cc1ccc(-c2cc(NS(=O)(=O)c3ccccc3C)c(C(=O)O)s2)nc1 [Compound 184, 5-(5-METHYL-PYRIDIN-2-YL)-3-(TOLUENE-2-SULFONYLAMINO)-THIOPHENE-2-CARBOXYLIC ACID]
The IC50 of the first is higher: 5 to 20 µM for the first, less than 5 µM for the second. The second is the more potent here.

Compared with `Cc1ccccc1S(=O)(=O)Nc1cc(-c2nccs2)sc1C(=O)O` [Compound 178, 5-THIAZOL-2-YL-3-(TOLUENE-2-SULFONYLAMINO)-THIOPHENE-2-CARBOXYLIC ACID], `O=C(O)c1sc(-c2ccccc2)cc1NC(=O)N1CCc2ccccc2C1` [Compound 180, 3-[(3,4-DIHYDRO-1H-ISOQUINOLINE-2-CARBONYL)-AMINO]-5-PHENYL-THIOPHENE-2-CARBOXYLIC ACID] is higher in IC50: less than 5 µM for the first, 5 to 20 µM for the second. The first is the more potent here.
